Measurements published in publication PMC12736120, “First-in-Human Phase I Clinical Trial of SLC-391, a Novel and Selective AXL Inhibitor, in Patients with Advanced Solid Tumours” (Pharmaceuticals, 2025).

Test: Phase I safety and tolerability (DLTs, adverse events, laboratory, ECG)
Format: in vivo
Experimental: This study employed a standard 3 + 3 dose escalation design with a starting dose of 25 mg QD. […] Dose escalation decisions took into account all available data from evaluable subjects as well as PK and the safety profile of prior dose cohorts. […] There was a minimum 5-day stagger between dosing of the first and second subjects in each dose cohort. Dose escalation decisions were made by a data review committee (DRC) composed of, at minimum, the medical monitor, at least one principal investigator, and a sponsor representative, per the study DRC Plan. Dose escalation could continue until 2 or more subjects in the same dose cohort experienced a dose-limiting toxicity (DLT). DLTs were defined as Grade 3 or 4 adverse drug reactions (ADRs), with grades as defined in the National Cancer Institute Common Toxicity Criteria for Adverse Events (NCI-CTCAE) version 5.0. […] The MTD was defined as the highest dose at which no more than 1 of 6 subjects experienced a DLT during cycle 1 of the study drug. The MTD would have been exceeded if 2 or more subjects in a dose cohort of up to 6 subjects experienced a DLT. Subjects could continue treatment until disease progression, unacceptable toxicity, death, withdrawal of consent, or loss to follow-up.
Before enrolment in the study, all patients received a detailed medical history and physical examination. Clinical laboratory evaluations included clinical chemistry, complete blood count, urinalysis, coagulation factors, and a lipid panel. Other safety assessments included vital signs, physical examination, electrocardiogram, and echocardiogram with multigated acquisition (ECHO/MUGA). Safety assessments were performed on days 1, 8, 15, and 21 of cycle 1, and on day 1 of cycles 2 to 6.

[1] = Grade 3, Overall Study (N = 35)
[2] = Grade All, Overall BID (N = 15)
[3] = Grade All, Overall Study (N = 35)

Nc1ncc(-c2cnn(C3CCNCC3)c2)cc1-c1nnc(CC2CC2)o1 [SLC-391, 3-(5-[cyclopropylmethyl]-1,3,4-oxadiazol-2-yl)-5-(1-[piperidin-4-yl]-1H-pyrazol-4-yl)-pyridin-2-amine]
TEAE: Metabolism and nutrition disorders (Grade 3, Overall BID (N = 15)): 0 n (%)
TEAE: Musculoskeletal and connective tissue disorders (Grade 3, Overall BID (N = 15)): 1 (6.7) n (%)
TEAE: Nausea (Grade 3, Overall BID (N = 15)): 0 n (%)
TEAE: Renal and urinary disorders (Grade 3, Overall BID (N = 15)): 1 (6.7) n (%)
TEAE: Respiratory, thoracic, and mediastinal disorders (Grade 3, Overall BID (N = 15)): 0 n (%)
TEAE: Skin and subcutaneous tissue disorders (Grade 3, Overall BID (N = 15)): 1 (6.7) n (%)
TEAE: Vascular disorders (Grade 3, Overall BID (N = 15)): 1 (6.7) n (%)
TEAE: Vomiting (Grade 3, Overall BID (N = 15)): 0 n (%)
Any treatment-emergent adverse event (TEAE) (Grade 3, Overall QD (N = 20)): 6 (30.0) n (%)
TEAE: Blood and lymphatic system disorders (Grade 3, Overall QD (N = 20)): 1 (5.0) n (%)
TEAE: Diarrhoea (Grade 3, Overall QD (N = 20)): 0 n (%)
TEAE: Dyspnoea (Grade 3, Overall QD (N = 20)): 1 (5.0) n (%)
TEAE: Fatigue (Grade 3, Overall QD (N = 20)): 0 n (%)
TEAE: Gastrointestinal disorders (Grade 3, Overall QD (N = 20)): 3 (15.0) n (%)
TEAE: General disorders and administration site conditions (Grade 3, Overall QD (N = 20)): 0 n (%)
TEAE: Infections and infestations (Grade 3, Overall QD (N = 20)): 1 (5.0) n (%)
TEAE: Metabolism and nutrition disorders (Grade 3, Overall QD (N = 20)): 2 (10.0) n (%)
TEAE: Musculoskeletal and connective tissue disorders (Grade 3, Overall QD (N = 20)): 1 (5.0) n (%)
TEAE: Nausea (Grade 3, Overall QD (N = 20)): 1 (5.0) n (%)
TEAE: Renal and urinary disorders (Grade 3, Overall QD (N = 20)): 0 n (%)
TEAE: Respiratory, thoracic, and mediastinal disorders (Grade 3, Overall QD (N = 20)): 2 (10.0) n (%)
TEAE: Skin and subcutaneous tissue disorders (Grade 3, Overall QD (N = 20)): 0 n (%)
TEAE: Vascular disorders (Grade 3, Overall QD (N = 20)): 1 (5.0) n (%)
TEAE: Vomiting (Grade 3, Overall QD (N = 20)): 1 (5.0) n (%)
Any treatment-emergent adverse event (TEAE) [1]: 12 (34.3) n (%)
TEAE: Blood and lymphatic system disorders [1]: 2 (5.7) n (%)
TEAE: Diarrhoea [1]: 1 (2.9) n (%)
TEAE: Dyspnoea [1]: 1 (2.9) n (%)
TEAE: Fatigue [1]: 1 (2.9) n (%)
TEAE: Gastrointestinal disorders [1]: 4 (11.4) n (%)
TEAE: General disorders and administration site conditions [1]: 1 (2.9) n (%)
TEAE: Infections and infestations [1]: 2 (5.7) n (%)
TEAE: Metabolism and nutrition disorders [1]: 2 (5.7) n (%)
TEAE: Musculoskeletal and connective tissue disorders [1]: 2 (5.7) n (%)
TEAE: Nausea [1]: 1 (2.9) n (%)
TEAE: Renal and urinary disorders [1]: 1 (2.9) n (%)
TEAE: Respiratory, thoracic, and mediastinal disorders [1]: 2 (5.7) n (%)
TEAE: Skin and subcutaneous tissue disorders [1]: 1 (2.9) n (%)
TEAE: Vascular disorders [1]: 2 (5.7) n (%)
TEAE: Vomiting [1]: 1 (2.9) n (%)
Any treatment-emergent adverse event (TEAE) [2]: 15 (100.0) n (%)
TEAE: Abdominal distension [2]: 3 (20.0) n (%)
TEAE: Abdominal pain [2]: 0 n (%)
TEAE: Back pain [2]: 2 (13.3) n (%)
TEAE: Blood and lymphatic system disorders [2]: 2 (13.3) n (%)
TEAE: Chills [2]: 4 (26.7) n (%)
TEAE: Constipation [2]: 7 (46.7) n (%)
TEAE: Cough [2]: 3 (20.0) n (%)
TEAE: Decreased appetite [2]: 5 (33.3) n (%)
TEAE: Diarrhoea [2]: 9 (60.0) n (%)
TEAE: Dizziness [2]: 0 n (%)
TEAE: Dysgeusia [2]: 2 (13.3) n (%)
TEAE: Dyspnoea [2]: 5 (33.3) n (%)
TEAE: Fatigue [2]: 10 (66.7) n (%)
TEAE: Gastrointestinal disorders [2]: 13 (86.7) n (%)
TEAE: General disorders and administration site conditions [2]: 12 (80.0) n (%)
TEAE: Haematuria [2]: 4 (26.7) n (%)
TEAE: Headache [2]: 3 (20.0) n (%)
TEAE: Infections and infestations [2]: 7 (46.7) n (%)
TEAE: Investigations [2]: 3 (20.0) n (%)
TEAE: Metabolism and nutrition disorders [2]: 5 (33.3) n (%)
TEAE: Musculoskeletal and connective tissue disorders [2]: 6 (40.0) n (%)
TEAE: Nausea [2]: 11 (73.3) n (%)
TEAE: Nervous system disorders [2]: 5 (33.3) n (%)
TEAE: Oedema peripheral [2]: 2 (13.3) n (%)
TEAE: Psychiatric disorders [2]: 3 (20.0) n (%)
TEAE: Pyrexia [2]: 2 (13.3) n (%)
TEAE: Renal and urinary disorders [2]: 5 (33.3) n (%)
TEAE: Respiratory, thoracic, and mediastinal disorders [2]: 8 (53.3) n (%)
TEAE: Skin and subcutaneous tissue disorders [2]: 3 (20.0) n (%)
TEAE: Urinary tract infection [2]: 3 (20.0) n (%)
TEAE: Vascular disorders [2]: 2 (13.3) n (%)
TEAE: Vomiting [2]: 6 (40.0) n (%)
TEAE: Weight decreased [2]: 2 (13.3) n (%)
Any treatment-emergent adverse event (TEAE) (Grade All, Overall QD (N = 20)): 19 (95.0) n (%)
TEAE: Abdominal distension (Grade All, Overall QD (N = 20)): 3 (15.0) n (%)
TEAE: Abdominal pain (Grade All, Overall QD (N = 20)): 5 (25.0) n (%)
TEAE: Back pain (Grade All, Overall QD (N = 20)): 2 (10.0) n (%)
TEAE: Blood and lymphatic system disorders (Grade All, Overall QD (N = 20)): 2 (10.0) n (%)
TEAE: Chills (Grade All, Overall QD (N = 20)): 2 (10.0) n (%)
TEAE: Constipation (Grade All, Overall QD (N = 20)): 7 (35.0) n (%)
TEAE: Cough (Grade All, Overall QD (N = 20)): 4 (20.0) n (%)
TEAE: Decreased appetite (Grade All, Overall QD (N = 20)): 7 (35.0) n (%)
TEAE: Diarrhoea (Grade All, Overall QD (N = 20)): 11 (55.0) n (%)
TEAE: Dizziness (Grade All, Overall QD (N = 20)): 4 (20.0) n (%)
TEAE: Dysgeusia (Grade All, Overall QD (N = 20)): 2 (10.0) n (%)
TEAE: Dyspnoea (Grade All, Overall QD (N = 20)): 7 (35.0) n (%)
TEAE: Fatigue (Grade All, Overall QD (N = 20)): 12 (60.0) n (%)
TEAE: Gastrointestinal disorders (Grade All, Overall QD (N = 20)): 17 (85.0) n (%)
TEAE: General disorders and administration site conditions (Grade All, Overall QD (N = 20)): 15 (75.0) n (%)
TEAE: Haematuria (Grade All, Overall QD (N = 20)): 1 (5.0) n (%)
TEAE: Headache (Grade All, Overall QD (N = 20)): 2 (10.0) n (%)
TEAE: Infections and infestations (Grade All, Overall QD (N = 20)): 4 (20.0) n (%)
TEAE: Investigations (Grade All, Overall QD (N = 20)): 5 (25.0) n (%)
TEAE: Metabolism and nutrition disorders (Grade All, Overall QD (N = 20)): 9 (45.0) n (%)
TEAE: Musculoskeletal and connective tissue disorders (Grade All, Overall QD (N = 20)): 8 (40.0) n (%)
TEAE: Nausea (Grade All, Overall QD (N = 20)): 13 (65.0) n (%)
TEAE: Nervous system disorders (Grade All, Overall QD (N = 20)): 10 (50.0) n (%)
TEAE: Oedema peripheral (Grade All, Overall QD (N = 20)): 2 (10.0) n (%)
TEAE: Psychiatric disorders (Grade All, Overall QD (N = 20)): 2 (10.0) n (%)
TEAE: Pyrexia (Grade All, Overall QD (N = 20)): 3 (15.0) n (%)
TEAE: Renal and urinary disorders (Grade All, Overall QD (N = 20)): 1 (5.0) n (%)
TEAE: Respiratory, thoracic, and mediastinal disorders (Grade All, Overall QD (N = 20)): 11 (55.0) n (%)
TEAE: Skin and subcutaneous tissue disorders (Grade All, Overall QD (N = 20)): 7 (35.0) n (%)
TEAE: Urinary tract infection (Grade All, Overall QD (N = 20)): 1 (5.0) n (%)
TEAE: Vascular disorders (Grade All, Overall QD (N = 20)): 3 (15.0) n (%)
TEAE: Vomiting (Grade All, Overall QD (N = 20)): 11 (55.0) n (%)
TEAE: Weight decreased (Grade All, Overall QD (N = 20)): 4 (20.0) n (%)
Any treatment-emergent adverse event (TEAE) [3]: 34 (97.1) n (%)
TEAE: Abdominal distension [3]: 6 (17.1) n (%)
TEAE: Abdominal pain [3]: 5 (14.3) n (%)
TEAE: Back pain [3]: 4 (11.4) n (%)
TEAE: Blood and lymphatic system disorders [3]: 4 (11.4) n (%)
TEAE: Chills [3]: 6 (17.1) n (%)
TEAE: Constipation [3]: 14 (40.0) n (%)
TEAE: Cough [3]: 7 (20.0) n (%)
TEAE: Decreased appetite [3]: 12 (34.3) n (%)
TEAE: Diarrhoea [3]: 20 (57.1) n (%)
TEAE: Dizziness [3]: 4 (11.4) n (%)
TEAE: Dysgeusia [3]: 4 (11.4) n (%)
TEAE: Dyspnoea [3]: 12 (34.3) n (%)
TEAE: Fatigue [3]: 22 (62.9) n (%)
TEAE: Gastrointestinal disorders [3]: 30 (85.7) n (%)
TEAE: General disorders and administration site conditions [3]: 27 (77.1) n (%)
TEAE: Haematuria [3]: 5 (14.3) n (%)
TEAE: Headache [3]: 5 (14.3) n (%)
TEAE: Infections and infestations [3]: 11 (31.4) n (%)
TEAE: Investigations [3]: 8 (22.9) n (%)
TEAE: Metabolism and nutrition disorders [3]: 14 (40.0) n (%)
